Laboratory results: patent US7592457B2 (Korea Research Institute of Chemical Technology, priority 2004, dated 2009)
Like-named read-outs stand apart in the source and are kept apart here.

Tests used:
[1] = target: T1, hD2L receptor (Homo sapiens, UniProt P14416); assay: Radioligand binding, dopamine D2 ([3H]spiperone); settings: read-out: Binding affinity (Inhibition rate % at 10 μM) D2
T1 construct: purchased BioSignal Packard Inc., Montreal, Canada

[2] = target: D1 (Homo sapiens, UniProt P21728); assay: Radioligand binding for selectivity, D1; settings: read-out: Binding affinity (Inhibition rate % at 10 μM) D1
[3] = target: T2, 5-HT2a (Homo sapiens, UniProt P28223); assay: Radioligand binding, 5-HT2a ([3H]Ketanserin); settings: read-out: Binding affinity (Inhibition rate % at 10 μM) 5HT2a
T2 construct: purchased Euroscreen/BioSignal Packard Inc
Experimental: (§1) Radioligand bindings were performed according to the test method provided by the supplier of receptor membrane (Euroscreen/BioSignal Packard Inc.).

[4] = target: T3, hD3 receptor (Homo sapiens, UniProt P35462); assay: Radioligand binding, dopamine D3 ([3H]spiperone); settings: read-out: Binding affinity (Inhibition rate % at 10 μM) D3
T3 construct: purchased BioSignal Packard Inc., Montreal, Canada

[5] = target: T4, 5-HT2c (Homo sapiens, UniProt P28335); assay: Radioligand binding, 5-HT2c ([3H]Mesulergine); settings: read-out: Binding affinity (Inhibition rate % at 10 μM) 5HT2c
T4 construct: purchased Euroscreen/BioSignal Packard Inc
T4 sequence (P28335 33-458): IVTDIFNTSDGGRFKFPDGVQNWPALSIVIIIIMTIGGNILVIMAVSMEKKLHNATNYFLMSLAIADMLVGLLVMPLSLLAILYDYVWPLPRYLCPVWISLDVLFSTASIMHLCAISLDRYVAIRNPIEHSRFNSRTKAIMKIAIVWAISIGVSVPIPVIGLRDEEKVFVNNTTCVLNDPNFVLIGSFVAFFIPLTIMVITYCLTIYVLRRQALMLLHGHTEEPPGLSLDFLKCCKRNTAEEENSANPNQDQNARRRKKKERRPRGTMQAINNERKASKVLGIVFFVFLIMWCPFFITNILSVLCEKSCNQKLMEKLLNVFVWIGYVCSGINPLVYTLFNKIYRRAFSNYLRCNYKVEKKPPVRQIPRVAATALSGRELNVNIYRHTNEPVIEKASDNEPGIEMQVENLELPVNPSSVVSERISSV
Experimental: as §1

[6] = target: T5, 5-HT1a (Homo sapiens, UniProt P08908); assay: Radioligand binding, 5-HT1a ([3H]8-OH-DPAT); settings: read-out: Binding affinity (Inhibition rate % at 10 μM) 5HT1a
T5 construct: purchased Euroscreen/BioSignal Packard Inc
T5 sequence (P08908 1-422): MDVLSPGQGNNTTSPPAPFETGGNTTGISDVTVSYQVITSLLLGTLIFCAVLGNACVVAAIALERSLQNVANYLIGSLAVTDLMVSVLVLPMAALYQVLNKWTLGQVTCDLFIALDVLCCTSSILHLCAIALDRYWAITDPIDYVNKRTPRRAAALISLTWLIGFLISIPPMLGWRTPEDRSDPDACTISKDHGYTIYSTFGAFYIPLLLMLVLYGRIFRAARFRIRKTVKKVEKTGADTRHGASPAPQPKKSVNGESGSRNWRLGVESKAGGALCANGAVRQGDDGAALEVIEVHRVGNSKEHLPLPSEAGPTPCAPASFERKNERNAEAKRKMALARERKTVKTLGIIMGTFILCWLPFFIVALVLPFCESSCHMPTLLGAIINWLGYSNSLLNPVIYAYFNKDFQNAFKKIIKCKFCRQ
Experimental: as §1

[7] = target: T6, 5-HT7 (Homo sapiens, UniProt P34969); assay: Radioligand binding, 5-HT7 ([3H]LSD); settings: read-out: Binding affinity (Inhibition rate % at 10 μM) 5HT7
T6 construct: purchased Euroscreen/BioSignal Packard Inc
Experimental: as §1

[8] = target: T7, hD4.2 receptor (Homo sapiens, UniProt P21917, DEL265-296); assay: Radioligand binding, dopamine D4 ([3H]YM-09151-2); settings: read-out: Binding affinity (Inhibition rate % at 10 μM) D4
T7 construct: purchased BioSignal Packard Inc., Montreal, Canada
T7 sequence (P21917 with tags, fused parts or gaps DEL265-296): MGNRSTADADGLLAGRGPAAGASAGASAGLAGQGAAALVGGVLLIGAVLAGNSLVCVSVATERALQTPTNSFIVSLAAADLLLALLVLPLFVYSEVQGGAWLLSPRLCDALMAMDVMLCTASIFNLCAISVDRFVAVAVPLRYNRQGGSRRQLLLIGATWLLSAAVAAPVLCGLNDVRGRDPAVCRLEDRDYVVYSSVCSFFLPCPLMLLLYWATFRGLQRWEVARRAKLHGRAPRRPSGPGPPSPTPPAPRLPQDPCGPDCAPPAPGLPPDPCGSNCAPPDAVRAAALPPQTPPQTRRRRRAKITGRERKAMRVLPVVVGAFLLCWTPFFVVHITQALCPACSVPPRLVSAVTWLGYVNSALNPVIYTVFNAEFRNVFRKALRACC

[9] = target: T8, human serotonin 5-HT6 receptor (Homo sapiens, UniProt P50406); assay: [3H]LSD binding at cloned 5-HT6 receptors; settings: for inhibition at 10 µM: read-out: Binding affinity (Inhibition rate % at 10 μM) 5HT6
T8 construct: made in house; host or cells: Sf21 insect cells (pBacPAK8 baculovirus vector)

[10] = [3H]LSD 1.87 nM, cloned receptor membranes, 37° C., 60 min, read-out: IC50

Chain of D1 (P21728 whole entry): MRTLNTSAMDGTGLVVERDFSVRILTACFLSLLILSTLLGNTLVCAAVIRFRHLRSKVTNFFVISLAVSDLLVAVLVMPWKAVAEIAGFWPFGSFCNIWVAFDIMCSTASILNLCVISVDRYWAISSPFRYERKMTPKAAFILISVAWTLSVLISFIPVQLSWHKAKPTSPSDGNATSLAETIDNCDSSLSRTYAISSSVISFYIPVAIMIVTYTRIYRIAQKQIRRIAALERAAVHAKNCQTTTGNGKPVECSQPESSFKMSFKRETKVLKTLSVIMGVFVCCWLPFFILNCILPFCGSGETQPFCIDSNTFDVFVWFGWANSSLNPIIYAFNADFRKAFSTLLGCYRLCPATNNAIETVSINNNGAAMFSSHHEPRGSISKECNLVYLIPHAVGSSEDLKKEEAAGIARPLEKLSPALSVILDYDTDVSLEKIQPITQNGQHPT
T2 sequence (P28223 whole entry): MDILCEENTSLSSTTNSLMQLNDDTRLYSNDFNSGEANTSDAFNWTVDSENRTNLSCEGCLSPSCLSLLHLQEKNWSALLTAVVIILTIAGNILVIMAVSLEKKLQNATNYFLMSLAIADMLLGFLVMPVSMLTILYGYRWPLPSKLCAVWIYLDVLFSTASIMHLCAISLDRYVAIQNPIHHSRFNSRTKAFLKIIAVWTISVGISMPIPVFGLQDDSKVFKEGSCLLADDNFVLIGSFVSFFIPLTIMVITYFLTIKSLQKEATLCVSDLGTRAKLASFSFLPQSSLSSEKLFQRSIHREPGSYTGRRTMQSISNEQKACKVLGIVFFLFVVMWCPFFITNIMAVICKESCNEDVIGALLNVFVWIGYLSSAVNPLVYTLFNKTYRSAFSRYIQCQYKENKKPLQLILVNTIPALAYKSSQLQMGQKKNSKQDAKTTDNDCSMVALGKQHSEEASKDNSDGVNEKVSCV
T6 sequence (P34969 whole entry): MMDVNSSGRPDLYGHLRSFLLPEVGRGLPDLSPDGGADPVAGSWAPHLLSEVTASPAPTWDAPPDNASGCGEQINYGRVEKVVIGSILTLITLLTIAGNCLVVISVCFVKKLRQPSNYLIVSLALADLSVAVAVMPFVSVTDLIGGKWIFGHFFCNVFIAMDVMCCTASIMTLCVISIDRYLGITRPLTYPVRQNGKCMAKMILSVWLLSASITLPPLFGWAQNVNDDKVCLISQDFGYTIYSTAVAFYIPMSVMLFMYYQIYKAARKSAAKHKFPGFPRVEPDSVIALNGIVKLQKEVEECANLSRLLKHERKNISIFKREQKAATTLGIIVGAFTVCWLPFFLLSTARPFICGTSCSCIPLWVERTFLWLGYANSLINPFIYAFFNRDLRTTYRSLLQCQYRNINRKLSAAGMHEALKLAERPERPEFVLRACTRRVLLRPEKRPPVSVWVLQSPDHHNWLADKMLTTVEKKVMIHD
T1 sequence (P14416 whole entry): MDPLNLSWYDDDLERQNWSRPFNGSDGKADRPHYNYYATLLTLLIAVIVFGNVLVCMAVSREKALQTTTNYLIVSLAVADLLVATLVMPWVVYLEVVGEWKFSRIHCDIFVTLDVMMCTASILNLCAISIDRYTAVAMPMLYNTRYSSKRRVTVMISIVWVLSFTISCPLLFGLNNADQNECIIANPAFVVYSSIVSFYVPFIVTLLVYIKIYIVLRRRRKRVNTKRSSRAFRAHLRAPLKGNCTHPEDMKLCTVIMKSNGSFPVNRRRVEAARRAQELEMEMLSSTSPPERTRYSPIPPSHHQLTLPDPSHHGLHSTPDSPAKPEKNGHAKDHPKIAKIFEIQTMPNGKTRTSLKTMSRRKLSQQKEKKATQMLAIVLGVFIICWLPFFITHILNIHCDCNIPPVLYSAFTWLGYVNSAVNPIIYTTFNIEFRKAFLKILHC
T8 sequence (P50406 whole entry): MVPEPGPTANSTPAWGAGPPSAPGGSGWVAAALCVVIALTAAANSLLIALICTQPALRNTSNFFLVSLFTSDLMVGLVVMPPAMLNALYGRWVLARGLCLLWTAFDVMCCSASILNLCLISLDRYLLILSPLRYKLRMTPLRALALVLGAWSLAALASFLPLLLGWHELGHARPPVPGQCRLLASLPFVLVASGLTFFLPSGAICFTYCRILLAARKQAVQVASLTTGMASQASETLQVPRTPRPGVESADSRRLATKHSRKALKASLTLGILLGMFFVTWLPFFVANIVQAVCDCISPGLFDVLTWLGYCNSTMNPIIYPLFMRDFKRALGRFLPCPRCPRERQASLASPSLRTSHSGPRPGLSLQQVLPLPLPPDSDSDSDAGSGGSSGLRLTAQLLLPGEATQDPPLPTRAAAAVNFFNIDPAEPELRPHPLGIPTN
T3 sequence (P35462 whole entry): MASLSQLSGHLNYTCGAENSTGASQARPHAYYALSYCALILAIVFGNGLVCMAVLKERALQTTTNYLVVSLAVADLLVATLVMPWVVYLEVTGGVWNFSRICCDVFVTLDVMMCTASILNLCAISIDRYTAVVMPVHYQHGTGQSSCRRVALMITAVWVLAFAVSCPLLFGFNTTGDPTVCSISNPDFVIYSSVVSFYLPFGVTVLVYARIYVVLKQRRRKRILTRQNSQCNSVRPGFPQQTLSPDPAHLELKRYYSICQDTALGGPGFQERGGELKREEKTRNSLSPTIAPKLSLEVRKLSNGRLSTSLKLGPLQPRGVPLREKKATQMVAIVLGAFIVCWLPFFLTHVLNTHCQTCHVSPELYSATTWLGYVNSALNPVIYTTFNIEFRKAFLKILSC

SMILES	inhibition at 10 µM [1] [%]	inhibition at 10 µM [2] [%]	inhibition at 10 µM [3] [%]	inhibition at 10 µM [4] [%]	inhibition at 10 µM [5] [%]	inhibition at 10 µM [6] [%]	inhibition at 10 µM [7] [%]	inhibition at 10 µM [8] [%]	melting point [°C]	IC50 [9, 10] [nM]	inhibition at 10 µM [9] [%]	IC50 [9] [nM]
COc1ccc(C2(C)C(=O)Nc3cc(OC)cc(Cl)c3C2=O)cc1 (centres unmarked) [Example 35, 5-chloro-7-methoxy-3-(4-methoxy-phenyl)-3-methyl-1H-quinoline-2,4-dione]	5.1	43.1	20.7	6.4	16.4	52.3	22.4	1.7	222 to 224	1360	69.1	–
C[C@H](NC(=O)Oc1cccc(C2(C)C(=O)Nc3cc(Cl)cc(Cl)c3C2=O)c1)c1ccccc1 (some centres unmarked) [Example 26]	26.5	50.5	38.1	14.8	9.1	0	12.7	0.5	91 to 94	–	70	980
CC1(c2ccccc2)C(=O)Nc2ccccc2C1=O (centres unmarked) [Example 2, 3-methyl-3-phenyl-1H-quinoline-2,4-dione]	5.6	10.2	8.4	12.2	30.6	15	10.4	0	194 to 196	1080	73.2	–
CC1(c2ccc(O)c(O)c2)C(=O)Nc2ccccc2C1=O (centres unmarked) [Example 32, 3-(3,4-dihydroxy-phenyl)-3-methyl-1H-quinoline-2,4-dione]	16	39	26.9	12.6	31.9	13.5	20.1	0	259 to 261	769	71	–
CC1(c2ccccc2)C(=O)Nc2cc(Cl)c(Cl)cc2C1=O (centres unmarked) [Example 9, 6,7-dichloro-3-methyl-3-phenyl-1H-quinoline-2,4-dione]	8.2	26.2	16.6	10.8	30.4	45.2	10.8	0	213 to 214	1060	71.2	–
CC1(c2ccc(N)cc2)C(=O)Nc2cc(Cl)ccc2C1=O (centres unmarked) [Example 38, 3-(4-amino-phenyl)-7-chloro-3-methyl-1H-quinoline-2,4-dione]	16.5	44.3	31.5	16.8	20.7	51.9	17.4	5.8	155 to 156	585	74.1	–
CN(C)c1cc(Cl)c2c(c1)NC(=O)C(C)(c1ccccc1)C2=O (centres unmarked) [Example 11, 5-chloro-7-dimethylamino-3-methyl-3-phenyl-1H-quinoline-2,4-dione]	19.3	40.5	30.4	20.5	20	49.5	35.2	0.4	224 to 226	1160	70.7	–
CC1(c2ccc(OCc3ccccc3)c(Br)c2)C(=O)Nc2cc(Cl)cc(Cl)c2C1=O (centres unmarked) [Example 23, 3-(4-benzyloxy-3-bromo-phenyl)-5,7-dichloro-3-methyl-1H-quinoline-2,4-dione]	9.6	16.8	26.4	32.5	21.9	64.9	27.4	0.7	189 to 190	1260	70.6	–
CC1(c2ccccc2)C(=O)Nc2cc(Cl)ccc2C1=O (centres unmarked) [Example 3, 7-chloro-3-methyl-3-phenyl-1H-quinoline-2,4-dione]	4.9	25.5	12	10.9	8.9	40.2	7	0	174 to 175	2470	69	–
COc1ccc(C2(C)C(=O)Nc3cc(Cl)cc(Cl)c3C2=O)cc1[N+](=O)[O-] (centres unmarked) [Example 21, 5,7-dichloro-3-(4-methoxy-3-nitro-phenyl)-3-methyl-1H-quinoline-2,4-dione]	10.5	40.2	16.3	16.4	10.8	15.9	0	0	255 to 256	1230	73.7	–
